Measurements published in patent US20110166223A1, “METHODS OF INHIBITING FGFR3 SIGNALING” (CEDARS-SINAI MEDICAL CENTER, priority 2008, published 2011).

Experiments:
[1] = system: FGF2/FGFR3-mediated growth-arrest of rat chondrosarcoma (RCS) cells; conditions: previous work [9, 12]; cited from earlier work
[2] = target: T1, recombinant tyrosine kinase (TK) domain of FGFR3 (Homo sapiens, UniProt P22607); conditions: previous work [9, 12]; cited from earlier work
T1 construct: recombinant tyrosine kinase (TK) domain of FGFR3 (Glu-322-Thr-806; Cell Signaling); purchased Cell Signaling

[3] = system: FGF2/FGFR3-mediated growth-arrest of rat chondrosarcoma (RCS) cells
Description: In this assay, the FGF2/FGFR3-mediated growth-arrest of rat chondrosarcoma (RCS) cells is used as a reporter, thus allowing for elimination of toxic compounds as false-positive hits (Krejci, et al., Invest New Drugs 2007, 25: 391-395).
Rat chondrosarcoma chondrocytes (RCS), chinese hamster ovary (CHO) cells and MM cell lines OPM2 and KMS11 were propagated in DMEM, Opti-MEM or RPMI media (Gibco, Gaitherbsburg, Md.), supplemented with 10% fetal bovine serum (Atlanta Biological, Nordeross, Ga.) and antibiotics. […] For the RCS growth-arrest experiments shown at FIGS. 1 and 4c, 1×10^4 RCS chondrocytes were seeded in 24-well tissue culture plates (Costar, Cambridge, Mass.), treated as indicated for 72 hours, and counted. FGF2 was obtained from R&D Systems (Minneapolis, Minn.); C-natriuretic peptide, suramin, NF023 and NF449 were from Calbiochem (San Diego, Calif.).

[4] = target: T1, recombinant tyrosine kinase (TK) domain of FGFR3; assay: Cell-free FGFR3 kinase assay with STAT1 as substrate; format: biochemical; conditions: added directly to the kinase reaction; FIG. 4
Description: FIG. 4, in accordance with an embodiment herein, depicts 4,4′,4″,4′″-[carbonyl-bis[imino-5,1,3-benzenetriyl bis-{carbonylimino}]]tetrakis-{benzene-1,3-disulfonic acid} inhibits FGFR3 activity in a kinase assay. (a, b) Cell-free kinase assays were carried out as described herein, with recombinant tyrosine kinase (TK) domain of FGFR3 as a kinase, recombinant STAT1 as a substrate, and NF449 added directly to the kinase reaction. FGFR3-mediated phosphorylation of STAT1 was detected by WB with P-STAT1 (Y^701) antibody. The membrane was reprobed with FGFR3 and STAT1 antibodies to control for kinase and substrate quantity. The sample with ATP omitted serves as a negative control for the kinase reaction. Note the FGFR3-mediated phosphorylation of STAT1 is inhibited by 4,4′,4″,4′″-[carbonyl-bis[imino-5,1,3-benzenetriyl bis-{carbonylimino}]]tetrakis-{benzene-1,3-disulfonic acid}. The P-STAT1 and STAT1 signal was quantified by densitometry and expressed as a ratio between P-STAT1 and STAT1 signal for each given sample (b, lower graph). (c) The FGFR3 kinase assay was carried-out as described in (a) with 4,4′,4″,4′″-[carbonyl-bis[imino-5,1,3-benzenetriyl bis-{carbonylimino}]]tetrakis-{benzene-1,3-disulfonic acid}, 8,8′-[carbonylbis[imino-3,1-phenylenecarbonylimino{4-methyl-3,1-phenylene}carbonylimino]]bis-1,3,5-naphthalenetrisulfonic acid or 8,8′-[carbonylbis[imino-3,1-phenylene]]bis-{1,3,5-naphthalenetrisulfonic acid} added to the kinase reaction. Note the differential effects of 8,8′-[carbonylbis[imino-3,1-phenylenecarbonylimino{4-methyl-3,1-phenylene}carbonylimino]]bis-1,3,5-naphthalenetrisulfonic acid and 8,8′-[carbonylbis[imino-3,1-phenylene]]Bis-{1,3,5-naphthalenetrisulfonic acid} on the FGFR3-mediated phosphorylation of STAT1, which corresponds to their activity in the RCS growth-arrest experiment (lower graph). Data are an average from four wells with the indicated standard deviation. Statistically significant rescue of the growth arrest is indicated (Student's I-test; *-p<0.01).
OPM2 and KMS11 cells were lysed in ice-cold immunoprecipitation buffer (50 mM Tris-HCl pH 7.4, 150 mM NaCl, 0.5% NP-40, 1 mM EDTA, 25 mM NaF) supplemented with proteinase inhibitors and 10 mM sodium orthovanadate. Protein samples were resolved by SDS-PAGE and transferred onto a PVDF membrane. The following antibodies were used: Erk1/2, P-Erk1/2^T202/Y204, STAT1, P-STAT1^Y701 (Cell Signaling, Beverly, Mass.) and FGFR3 (Santa Cruz Biotechnology, Santa Cruz, Calif.). Western blotting signal was quantified by determining the integrated optical density (I.O.D.) of a given band using Scion Image software (Scion Corporation, Frederick, Mass.). Immunoprecipitations and FGFR3 kinase assays were performed as described. Briefly, the pRK7 vector encoding C-terminally FLAG-tagged K650E-FGFR3 was transfected into CHO cells using FuGENE6 reagent according to the manufacturer's protocol (Roche Applied Science, Indianapolis, Ind.). 48 hours after transfection, cells were treated with 20 ng/ml of FGF2 for 15 minutes and K650E-FGFR3 was immunoprecipitated from 800 μg of cell lysate protein using 4 μg of anti-FLAG antibody (Sigma-Aldrich, St. Louis, Mo.). Cells transfected with a plasmid encoding green fluorescent protein (pCCEY) serve as a negative control for the immunoprecipitation. Immunocomplexes were washed two times with kinase buffer (60 mM HEPES-NaOH pH 7.5, 3 mM MgCl2, 3 mM MnCl2, 3 μM Na3VO4, 1.2 mM dithiothreitol), and the kinase reactions were performed for 30 minutes at 30° C. in the presence of 2.5 μg of polyethylene glycol, 10 μM ATP, 300 ng of recombinant STAT1 (Active Motif, Carlsbad, Calif.) as a substrate, and NF449 added directly to the kinase reaction. Kinase assays utilizing recombinant tyrosine kinase (TK) domain of FGFR3 (Glu-322-Thr-806; Cell Signaling) were carried-out similarly, with 300 ng of kinase used in 50 μl reaction, and suramin, NF449 and NF023 added directly to the kinase reaction. […]

T1 sequence (P22607 322-806): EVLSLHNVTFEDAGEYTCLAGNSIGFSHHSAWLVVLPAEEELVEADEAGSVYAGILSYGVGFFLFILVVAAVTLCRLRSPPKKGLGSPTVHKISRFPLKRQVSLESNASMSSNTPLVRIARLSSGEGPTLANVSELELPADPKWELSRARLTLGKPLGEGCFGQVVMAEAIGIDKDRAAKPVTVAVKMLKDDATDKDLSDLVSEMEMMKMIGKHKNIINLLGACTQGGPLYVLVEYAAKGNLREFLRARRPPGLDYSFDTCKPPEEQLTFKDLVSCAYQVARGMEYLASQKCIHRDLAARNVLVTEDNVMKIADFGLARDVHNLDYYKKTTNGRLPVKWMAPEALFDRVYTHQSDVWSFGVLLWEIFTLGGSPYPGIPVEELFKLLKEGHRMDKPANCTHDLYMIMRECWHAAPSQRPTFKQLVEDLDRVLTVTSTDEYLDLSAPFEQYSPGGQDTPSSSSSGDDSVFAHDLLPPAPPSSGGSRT

For Cc1c[nH]c(/C=C2\C(=O)Nc3ccccc32)c1CCC(=O)O [SU5402], the “concentration range inhibiting RCS growth arrest” value [1] is given as 2 to 20 µM and the “concentration range inhibiting FGFR3 kinase activity” value [2] is given as 2 to 20 µM.

With Cc1ccc(C(=O)Nc2ccc(S(=O)(=O)O)c3cc(S(=O)(=O)O)cc(S(=O)(=O)O)c23)cc1NC(=O)c1cccc(NC(=O)Nc2cccc(C(=O)Nc3cc(C(=O)Nc4ccc(S(=O)(=O)O)c5cc(S(=O)(=O)O)cc(S(=O)(=O)O)c45)ccc3C)c2)c1 [suramin, 8,8′-[carbonylbis[imino-3,1-phenylenecarbonylimino{4-methyl-3,1-phenylene}carbonylimino]]bis-1,3,5-naphthalenetrisulfonic acid, reference compound] the “effect on FGF2/FGFR3-mediated growth arrest (in words)” value ([3]; RCS chondrocytes, FIGS. 1, 4c) was “reversed the FGF2/FGFR3-mediated growth arrest” and the “effect on FGFR3 kinase activity (in words)” value [4] was “inhibited FGFR3 kinase activity”.

In the case of “C-natriuretic peptide [CNP, reference compound]”, the “rescue of the FGF2-mediated RCS growth-arrest” value ([3]; FIG. 1b, each agent alone, 72 hours) is reported as ~23%.
